Assay results as given in PubChem BioAssay (NCI).
Where “and” joins values, the source holds several entries; their conditions need not be identical. Equal values may be shown once.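 Method: 48-hour compound exposure of cells in 96-well plates, five concentrations, linear interpolation of endpoints. Abbreviation: GI50, concentration required for 50% inhibition of growth. TGI: total growth inhibition.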

How the values were obtained:
Assay in all cases: inhibition of tumour cell growth, NCI panel, 48 h
SN12C renal = test system: SN12C renal
SR leukemia = test system: SR leukemia
NCI-H460 lung = test system: NCI-H460 lung
T-47D breast = test system: T-47D breast
786-0 renal = test system: 786-0 renal
OVCAR-4 ovarian = test system: OVCAR-4 ovarian
HOP-62 NSCLC = test system: HOP-62 NSCLC
OVCAR-8 ovarian = test system: OVCAR-8 ovarian
LOX IMVI melanoma = test system: LOX IMVI melanoma
SK-OV-3 ovarian = test system: SK-OV-3 ovarian

Compound | GI50 (SN12C renal) [µM] | TGI (SN12C renal) | GI50 (SR leukemia) [µM] | TGI (SR leukemia) | GI50 (NCI-H460 lung) [µM] | TGI (NCI-H460 lung) | GI50 (T-47D breast) [µM] | TGI (T-47D breast) | GI50 (786-0 renal) [µM] | TGI (786-0 renal) | GI50 (OVCAR-4 ovarian) [µM] | TGI (OVCAR-4 ovarian) | GI50 (HOP-62 NSCLC) [µM] | TGI (HOP-62 NSCLC) [µM] | GI50 (OVCAR-8 ovarian) [µM] | TGI (OVCAR-8 ovarian) | GI50 (LOX IMVI melanoma) [µM] | TGI (LOX IMVI melanoma) | GI50 (SK-OV-3 ovarian) [µM] | TGI (SK-OV-3 ovarian)
CCOc1cccc(/C=N/NC(=O)C(=O)Nc2cccc(C(F)(F)F)c2)c1O | 2.66 | > 100 µM | 0.705 | 15.4 µM | 0.808 | 60.3 µM | 2.67 | 36.1 µM | 3.27 | 41.3 µM | 0.398 | > 100 µM | 3.1 | 53.6 | 1.29 | > 100 µM | 1.44 | 22.2 µM | 5.28 | > 100 µM
O=C1NC(=S)S/C1=C(/C=C(\CC(=O)c1ccccc1)c1ccc(Cl)cc1)c1ccccc1 | 25.3 | 56.3 µM | 27 | 63.3 µM | 19.9 | 45.7 µM | 35.6 | > 100 µM | 46.9 | > 100 µM | 44.9 | > 100 µM | 38.5 | > 100 | 26.5 | > 100 µM | 37.6 | > 100 µM | > 100 | > 100 µM
Cc1sc2nc3c4ccccc4c(NCCCN(C)C)nn3c(=O)c2c1C | 5.14 | 21.7 µM | 1.33 | 3.52 µM | 1.08 | 5.35 µM | 12.7 | 26.1 µM | 9.14 | 21.9 µM | 12.1 | 24.9 µM | 12.3 | 25.3 | 11 | 27.9 µM | 2 | 6.85 µM | 13.4 | 26.3 µM
COc1cc(/C=C2\C(=O)Nc3ccc(N(C)C)cc32)cc(OC)c1OC | 4.26 | 42.3 µM | 0.34 | 2.4 µM | 2.98 | > 29.1 µM | 2.49 | > 31.3 µM | 4.3 | 33.3 µM | 3.7 | > 100 µM | 8.48 | 50.2 | 4.46 | > 79.4 µM | 3.2 | 18.6 µM | 3.55 | 30.4 µM
CC(CCC(=O)O)C(=O)O (stereo unspecified) |  | > 100 µM |  | > 100 µM |  | > 100 µM |  | > 100 µM |  | > 100 µM |  | > 100 µM |  | > 100 |  | > 100 µM |  | > 100 µM |  | > 100 µM
CN(C)CCCNC(=O)c1ccc2c(c1)oc1cc3ccccc3c(=O)n12 | 15.4 | 43.4 µM | 10 | 46.6 µM | 9.96 | 39.9 µM | 11.5 | 26.7 µM | > 50 | > 50 µM | 40.9 | > 50 µM | > 50 | > 50 | 10.1 | 24.9 µM | 9.4 | 17.9 µM | 38.7 | > 50 µM
COc1ccc(Cn2c3c(cc(OS(=O)(=O)C(F)(F)F)c2=O)Cc2ccccc2-3)cc1 | 5.91 | 50 µM and 47 µM |  | 50 µM and 20.1 µM |  | 50 µM and 36.4 µM | 16.6 | 50 µM and > 100 µM | 3.87 | 50 µM and > 100 µM | 9.56 | 50 µM and > 100 µM |  | 50 | 9.07 | 50 µM and > 100 µM | 6.82 | 50 µM and > 100 µM | > 100 | 50 µM and > 100 µM
Cc1cc2c(cc1C)N(C(=O)CCl)CCN2C(=O)CCl | 0.754 | 2.67 µM | 0.421 | 2.65 µM | 1.7 | 3.33 µM | 1.4 | 3.94 µM | 0.657 | 1.58 µM | 1.44 | 3.37 µM | 1.71 | 3.37 | 0.644 | 6.13 µM | 0.173 | 0.365 µM | 1.9 | 3.98 µM
COC(=O)c1nc(Cl)nc(Cl)c1Cl |  | 45.1 µM |  | 58.7 µM |  | > 100 µM |  | 54.2 µM |  | 33.1 µM |  | 41 µM |  | > 100 |  | 54.5 µM |  | 29.6 µM |  | > 100 µM
COc1ccccc1/C=C/C(=O)c1ccccc1 | 7.55 | 22.9 µM | 1.77 |  | 13.7 | 31.9 µM | 16.8 | 63.3 µM | 18.3 | 32.8 µM | 9.33 | 25.9 µM | 18.8 | 37 | 11.2 | 28 µM | 2.06 | 5.07 µM | 33.3 | > 100 µM
Cc1[nH]nc(C(=O)n2nc(N)c3ccccc32)c1[N+](=O)[O-] | > 100 | > 100 µM | 26.2 | > 100 µM | > 100 | > 100 µM | > 100 | > 100 µM | > 100 | > 100 µM | > 100 | > 100 µM | > 100 | > 100 | > 100 | > 100 µM | > 39.5 | > 100 µM | > 100 | > 100 µM
COc1ccc2[nH]c(O)c(C(=Nc3ccc(N(C)C(=O)CN4CCN(C)CC4)cc3)c3ccccc3)c2c1 | 0.74 | 10.4 µM | 0.23 | 1.45 µM | 2.83 | 11.1 µM | 3.54 | 15.9 µM | 1.9 | 5.52 µM | 2.13 | 12.6 µM | 1.12 | 12.3 | 3.24 | 14 µM | 1.02 | 2.19 µM | 2.96 | 9.32 µM
CCOc1cc(/C=N\Nc2nnc(C)n2N)c(C)cc1N(CCCl)CCCl | 1.07 | 27.3 µM | 0.558 | 23.5 µM | 0.843 | 31.5 µM | 0.46 | 14.3 µM | 1.51 | 23.2 µM | 0.338 | > 68.2 µM | 0.631 | 22.5 | 1.34 | > 36 µM | 0.349 | 11.2 µM | 2.28 | 8.24 µM
